{"source": "patent US20240062912A1", "about": "“METHODS FOR DETERMINING LIVER FUNCTION COMPRISING A MULTI-COMPARTMENTAL MODEL” (HepQuant, LLC, priority 2022, published 2024)", "origin": "cited, not measured here", "details": "cited from earlier work", "key": {"[1]": {"details": "healthy controls, previous studies"}}, "data": [{"smiles": "[2H]C1([2H])C[C@@]2(C)[C@H](C[C@@H](O)[C@@H]3[C@@H]2C[C@H](O)[C@]2(C)[C@@H]([C@H](C)CCC(=O)O)CC[C@@H]32)C([2H])([2H])[C@@H]1O", "note": "[d4-CA, cholic-acid-2,2,4,4-d4]", "values": [{"measurement": "SHUNT", "setting": "diseased liver", "value": "30-90%"}, {"measurement": "STAT", "setting": "diseased liver", "value": "0.6 to 5", "unit": "µM"}, {"measurement": "portal HFR (FLOW)", "setting": "diseased liver", "value": "20 to 2", "unit": "mL/min/kg"}, {"measurement": "average HFR (FLOW)", "setting": "[1]", "value": 30, "unit": "mL/min/kg"}, {"measurement": "average SHUNT", "setting": "[1]", "value": "~20", "unit": "%"}, {"measurement": "average STAT value", "setting": "[1]", "value": "~0.4"}]}]}
